Experimental findings from publication PMC8262356, “SLC26A6-selective inhibitor identified in a small-molecule screen blocks fluid absorption in small intestine” (JCI Insight, 2021) are described below.

SMILES strings stand for the structures.

In one test the target is T1, CFTR (Homo sapiens, UniProt P13569).
T1 construct: endogenous in cells; host or cells: well-differentiated human bronchial epithelial (HBE) cells at air-liquid interface
The test is described as follows: Short-circuit current in well-differentiated HBE cells, forskolin/CFTRinh-172 response. Conditions: 25 μM pretreatment. The format is cell-based. The procedure:
(§1) PAT1inh-B01 selectivity was studied by testing its effects on related SLC26A family anion transporters and the Cl^– channel TMEM16A. These measurements used a similar Cl^–/I^– exchange protocol, but FRT cells separately expressed each of the SLC26A family members or TMEM16A. […] PAT1inh-B01 selectivity was also tested by short-circuit current (Isc) in well-differentiated human bronchial epithelial (HBE) cells, which have a complex ion transport mechanism that includes cystic fibrosis transmembrane conductance regulator (CFTR), epithelial Na^+ channel (ENaC), and Ca^+2-activated chloride channels (CaCCs) ([13]). […] Potential PAT1inh-B01 cytotoxicity was studied in FRT cells.
(§2) Figure 3 PAT1inh-B01 selectivity and cytotoxicity. […] Cl^–/I^– exchange or I^– influx measured in FRT cells coexpressing YFP and SLC26A isoforms or TMEM16A, with data shown for 25 μM PAT1inh-B01, DMSO vehicle control, and 500 μM niflumic acid (positive control for SLC26A transporters) or 10 μM TMinh-23 (positive control for TMEM16A). […] (C) (left) Short-circuit current (Isc) in well-differentiated HBE cells measured in the absence (top) and presence (bottom) of 25 μM PAT1inh-B01. […]
(§3) YFP-based cellular assays of slc26a3, slc26a4, SLC26A9, and TMEM16A function were performed as described previously ([7]). […] The activities of ENaC, CFTR, and CaCC were determined using well-differentiated HBE cells as described previously ([13]). […]

The test system of a further test is CaCC. The test is described as follows: Short-circuit current in well-differentiated HBE cells, ATP response. The format is cell-based, human. Particulars: 25 μM pretreatment. The procedure: as §1, §2, §3

T1 sequence (P13569 whole entry): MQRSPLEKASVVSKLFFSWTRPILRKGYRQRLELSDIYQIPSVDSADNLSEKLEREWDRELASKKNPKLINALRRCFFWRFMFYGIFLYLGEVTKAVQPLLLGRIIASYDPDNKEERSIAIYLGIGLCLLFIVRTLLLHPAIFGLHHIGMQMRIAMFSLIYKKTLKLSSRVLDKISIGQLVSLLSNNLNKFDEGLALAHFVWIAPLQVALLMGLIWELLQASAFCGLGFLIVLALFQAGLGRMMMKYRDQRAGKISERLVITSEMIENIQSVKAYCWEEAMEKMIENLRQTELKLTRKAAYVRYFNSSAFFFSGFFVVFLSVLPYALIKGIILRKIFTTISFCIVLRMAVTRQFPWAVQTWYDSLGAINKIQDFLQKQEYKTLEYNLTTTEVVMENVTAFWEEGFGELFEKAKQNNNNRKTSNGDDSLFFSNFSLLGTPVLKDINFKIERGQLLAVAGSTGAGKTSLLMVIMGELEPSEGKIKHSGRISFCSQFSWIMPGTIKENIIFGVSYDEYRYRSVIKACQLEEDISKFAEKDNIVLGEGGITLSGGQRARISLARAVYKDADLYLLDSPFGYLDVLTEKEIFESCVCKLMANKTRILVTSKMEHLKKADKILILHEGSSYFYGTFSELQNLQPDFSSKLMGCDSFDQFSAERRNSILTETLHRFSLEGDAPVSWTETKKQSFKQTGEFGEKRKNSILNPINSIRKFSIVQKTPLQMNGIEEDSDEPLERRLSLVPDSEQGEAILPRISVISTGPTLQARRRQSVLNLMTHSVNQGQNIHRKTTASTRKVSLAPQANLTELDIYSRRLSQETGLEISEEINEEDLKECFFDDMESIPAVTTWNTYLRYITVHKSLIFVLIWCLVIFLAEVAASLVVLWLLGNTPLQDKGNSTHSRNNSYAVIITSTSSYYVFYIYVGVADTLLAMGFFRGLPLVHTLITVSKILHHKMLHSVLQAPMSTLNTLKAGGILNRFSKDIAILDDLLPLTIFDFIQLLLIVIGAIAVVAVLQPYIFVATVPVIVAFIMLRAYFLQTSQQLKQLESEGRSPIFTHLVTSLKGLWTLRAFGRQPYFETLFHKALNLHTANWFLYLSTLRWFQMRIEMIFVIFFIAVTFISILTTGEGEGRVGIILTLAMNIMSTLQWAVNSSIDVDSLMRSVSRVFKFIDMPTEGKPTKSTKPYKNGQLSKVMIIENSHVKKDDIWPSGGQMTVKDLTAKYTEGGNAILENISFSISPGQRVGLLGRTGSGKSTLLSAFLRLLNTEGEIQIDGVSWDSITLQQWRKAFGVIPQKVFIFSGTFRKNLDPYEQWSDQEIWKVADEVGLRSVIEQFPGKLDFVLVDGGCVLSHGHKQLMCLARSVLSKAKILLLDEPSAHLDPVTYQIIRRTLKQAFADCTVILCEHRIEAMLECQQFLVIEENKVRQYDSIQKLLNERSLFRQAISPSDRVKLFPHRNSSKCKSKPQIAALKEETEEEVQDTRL

As for `Cc1c(Br)c(C(F)(F)F)nn1CC(=O)N1CCc2nc3cc(-c4ccccc4)[nH]n3c(=O)c2C1` [PAT1inh-B01], the “effect on CFTR activity (Isc response to forskolin/CFTRinh-172)” value on CFTR was “no significant effect”. In addition, the “effect on CaCC activity (Isc response to ATP)” value with CaCC is reported as “no significant effect”.
